IC50 data for 8 compounds are collected here from US20250215029A1 (Recludix Pharma, Inc., priority 2022, published 2025).

In the test the target is T1, pY705-STAT3 in PBMC (Homo sapiens, UniProt P40763).
T1 construct: Cryopreserved Peripheral Blood Mononuclear Cells (PBMC) are from AllCells; host or cells: cryopreserved PBMC
T1 sequence (P40763 whole entry): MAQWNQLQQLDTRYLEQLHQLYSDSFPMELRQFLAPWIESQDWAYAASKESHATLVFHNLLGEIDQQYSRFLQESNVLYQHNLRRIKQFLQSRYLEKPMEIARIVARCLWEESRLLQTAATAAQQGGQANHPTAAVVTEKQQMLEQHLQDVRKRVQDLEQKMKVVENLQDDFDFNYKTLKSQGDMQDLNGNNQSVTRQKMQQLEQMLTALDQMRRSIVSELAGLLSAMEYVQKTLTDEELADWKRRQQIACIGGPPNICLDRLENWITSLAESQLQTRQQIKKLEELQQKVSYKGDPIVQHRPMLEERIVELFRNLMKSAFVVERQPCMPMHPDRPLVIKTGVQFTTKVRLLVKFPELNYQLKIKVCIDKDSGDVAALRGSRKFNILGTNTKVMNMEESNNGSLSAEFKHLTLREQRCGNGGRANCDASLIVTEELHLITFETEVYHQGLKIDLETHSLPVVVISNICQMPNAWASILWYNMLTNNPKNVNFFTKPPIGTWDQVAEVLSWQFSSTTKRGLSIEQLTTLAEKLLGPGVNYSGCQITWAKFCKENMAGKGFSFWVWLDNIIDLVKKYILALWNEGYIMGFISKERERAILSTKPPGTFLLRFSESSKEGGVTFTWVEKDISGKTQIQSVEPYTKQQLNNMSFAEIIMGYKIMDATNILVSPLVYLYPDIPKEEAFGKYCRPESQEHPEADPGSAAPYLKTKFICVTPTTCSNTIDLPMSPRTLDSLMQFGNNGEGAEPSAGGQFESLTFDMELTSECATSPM
The test is described as follows: MSD-pSTAT-PBMC Assay (pSTAT3, IL-6 stimulated). Conditions: PBMC, compound 3 hrs, then 10 ng/mL IL-6 for 10 min; Table 115; read-out: STAT3. It is filed as cell-based. A digest of the protocol:
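MSD electrochemiluminescence read-out: total STAT captured, probed with anti-pY641-STAT6 or anti-pY705-STAT3. Human PBMC, 3 h compound pretreatment, 10 min stimulation (IL-4 1 ng/mL or IL-6 10 ng/mL). Unstimulated signal subtracted, DMSO-normalized, variable-slope IC50.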
`CCCOC(=O)[C@H](C)NP(=O)(Cc1ccc2sc(C(=O)N[C@H]3CCC[C@H]4CC[C@@H](C(=O)N5CC(c6cn(C)ccc6=O)C5)N4C3=O)cc2c1)Oc1ccccc1` (stereo partly drawn) [Compound 979, propyl (((2-(((3S,6S,9aS)-3-(3-(1-methyl-4-oxo-1,4-dihydropyridin-3-yl)azetidine-1-carbonyl)-5-oxooctahydro-1H-pyrrolo[1,2-a]azepin-6-yl)carbamoyl)benzo [b]thiophen-5-yl)methyl)(phenoxy)phosphoryl)-L-alaninate]: the IC50 is over 3000 nM.
For `CCCOC(=O)[C@H](CC)NP(=O)(Cc1ccc2sc(C(=O)N[C@H]3CCC[C@H]4CC[C@@H](C(=O)N5CC(c6cccnc6)C5)N4C3=O)cc2c1)Oc1ccccc1` (stereo partly drawn) [Compound 296, propyl (2S)-2-((((2-(((3S,6S,9aS)-5-oxo-3-(3-(pyridin-3-yl)azetidine-1-carbonyl)octahydro-1H-pyrrolo[1,2-a]azepin-6-yl)carbamoyl)benzo [b]thiophen-5-yl)methyl)(phenoxy)phosphoryl)amino) butanoate] the value was under 100 nM; for `CCCOC(=O)[C@H](C)N[P@](=O)(Oc1ccccc1)[C@@H](F)c1ccc2sc(C(=O)N[C@H]3CCC[C@H]4CC[C@@H](C(=O)N5CC(c6cccnc6)C5)N4C3=O)cc2c1` (single isomer, unassigned) [Compound 446], under 100 nM; for `CCCOC(=O)[C@H](C)NP(=O)(Cc1ccc2sc(C(=O)N[C@H]3CCC[C@H]4CC[C@@H](C(=O)N5CC(c6cnccc6C6CC6)C5)N4C3=O)cc2c1)Oc1ccccc1` (stereo partly drawn) [Compound 267, propyl (((2-(((3S,6S,9aS)-3-(3-(4-cyclopropylpyridin-3-yl)azetidine-1-carbonyl)-5-oxooctahydro-1H-pyrrolo[1,2-a]azepin-6-yl)carbamoyl)benzo [b]thiophen-5-yl)methyl)(phenoxy)phosphoryl)-L-alaninate], under 100 nM.
For `CCCOC(=O)[C@H](C)NP(=O)(Oc1ccccc1)[C@@H](F)c1ccc2sc(C(=O)N[C@H]3CCC[C@H]4CC[C@@H](C(=O)N[C@H]5CN(c6ncc[nH]6)C[C@@H]5F)N4C3=O)cc2c1` (stereo partly drawn) [Compound 1030, propyl (((R)-fluoro(2-(((3S,6S,9aS)-3-(((3S,4S)-4-fluoro-1-(1H-imidazol-2-yl)pyrrolidin-3-yl)carbamoyl)-5-oxooctahydro-1H-pyrrolo[1,2-a]azepin-6-yl)carbamoyl)benzo [b]thiophen-5-yl)methyl)(phenoxy)phosphoryl)-L-alaninate] the value was over 3000 nM; for `CCCOC(=O)[C@H](C)NP(=O)(Oc1ccccc1)C(F)(F)c1ccc2sc(C(=O)N[C@H]3CCC[C@H]4CC[C@@H](C(=O)N5CC(c6cccnc6)C5)N4C3=O)cc2c1` (stereo partly drawn) [Compound 400, propyl ((difluoro(2-(((3S,6S,9aS)-5-oxo-3-(3-(pyridin-3-yl)azetidine-1-carbonyl)octahydro-1H-pyrrolo[1,2-a]azepin-6-yl)carbamoyl)benzo [b]thiophen-5-yl)methyl)(phenoxy)phosphoryl)-L-alaninate], 100 to 1000 nM.
With `CCCOC(=O)[C@H](C)NP(=O)(Cc1ccc2sc(C(=O)N[C@H]3CCC[C@H]4CC[C@@H](C(=O)N5CC(c6cccnc6)C5)N4C3=O)cc2c1)Oc1ccccc1` (stereo partly drawn) [Compound 250, propyl (((2-(((3S,6S,9aS)-5-oxo-3-(3-(pyridin-3-yl)azetidine-1-carbonyl)octahydro-1H-pyrrolo[1,2-a]azepin-6-yl)carbamoyl)benzo [b]thiophen-5-yl)methyl)(phenoxy)phosphoryl)-L-alaninate], the IC50 is under 100 nM.
With `CCCOC(=O)[C@H](C)N[P@](=O)(Oc1ccccc1)[C@@H](F)c1ccc2sc(C(=O)N[C@H]3C[C@@H](C)C[C@H]4CC[C@@H](C(=O)N5CC(c6cnccc6OC)C5)N4C3=O)cc2c1` (single isomer, unassigned) [Compound 1058], the IC50 was under 100 nM.
